Results from patent publication US20070249655A1, “4-Substituted-1,5-Dihydro-Pyrido[3,2-B]Indol-2-Ones” (priority 2004, published 2007).
Read-outs that look alike come from different tables or passages of the source.

What was measured:
[1] = test system: wild type laboratory HIV strain (HIV-1 strain LAI); assay: Antiviral cellular assay (MT4 cells, MTT), wild type; format: cell-based
Description: The compounds of the present invention were examined for anti-viral activity in a cellular assay. […] The cellular assay was performed according to the following procedure.
(§1) HIV- or mock-infected MT4 cells were incubated for five days in the presence of various concentrations of the inhibitor. At the end of the incubation period, the replicating virus in the control cultures has killed all HIV-infected cells in the absence of any inhibitor. Cell viability was determined by measuring the concentration of MTT, a yellow, water soluble tetrazolium dye that is converted to a purple, water insoluble formazan in the mitochondrial of living cells only. Upon solubilization of the resulting formazan crystals with isopropanol, the absorbance of the solution was monitored at 540 nm. The values correlate directly to the number of living cells remaining in the culture at the completion of the five day incubation. The inhibitory activity of the compound was monitored on the virus-infected cells and was expressed as EC50 and EC90. These values represent the amount of the compound required to protect 50% and 90%, respectively, of the cells from the cytopathogenic effect of the virus. The toxicity of the compound was measured on the mock-infected cells and was expressed as CC50, which represents the concentration of compound required to inhibit the growth of the cells by 50%. The selectivity index (SI) (ratio CC50/EC50) is an indication of the selectivity of the anti-HIV activity of the inhibitor. Wherever results are reported as e.g. pEC50 or pCC50 values, the result is expressed as the negative logarithm of the result expressed as EC50 or CC50 respectively.

[2] = test system: HIV strain A (Y181C); assay: Antiviral cellular assay, mutant strain A; format: cell-based
Description: as §1
(§2) Because of the increasing emergence of drug resistant HIV strains, the present compounds were also tested for their potency against clinically isolated HIV strains harbouring several mutations (Tables 1 and 7). These mutations are associated with resistance to reverse transcriptase inhibitors and result in viruses that show various degrees of phenotypic cross-resistance to the currently commercially available drugs such as for instance AZT, didanosine, nevirapine, lamivudine and zalcibatine.

[3] = test system: HIV strain B (K103N); assay: Antiviral cellular assay, mutant strain B; format: cell-based
Description: as §1, §2

[4] = test system: HIV strain C (L100I; K103N); assay: Antiviral cellular assay, mutant strain C; format: cell-based
Description: as §1, §2

[5] = test system: HIV strain D (L100I;K103N); assay: Antiviral cellular assay, mutant strain D; format: cell-based
Description: as §1, §2

[6] = test system: HIV strain E (F227C); assay: Antiviral cellular assay, mutant strain E; format: cell-based
Description: as §1, §2

[7] = test system: HIV strain F (Y188L); assay: Antiviral cellular assay, mutant strain F; format: cell-based
Description: as §1, §2

[8] = test system: HIV strain G (V106A, F227L); assay: Antiviral cellular assay, mutant strain G; format: cell-based
Description: as §1, §2

[9] = test system: HIV strain H (K103N, Y181C); assay: Antiviral cellular assay, mutant strain H; format: cell-based
Description: as §1, §2

[10] = test system: HIV strain I (K101E, K103N); assay: Antiviral cellular assay, mutant strain I; format: cell-based
Description: as §1, §2

[11] = test system: HIV strain J (I31L, L100I, K103N, E138G, Y181C, L214F); assay: Antiviral cellular assay, mutant strain J; format: cell-based
Description: as §1, §2

[12] = test system: HIV strain K (multi-mutant incl. M41L, D67N, K103N, Y181C, L210W, T215Y); assay: Antiviral cellular assay, mutant strain K; format: cell-based
Description: as §1, §2

[13] = test system: HIV-2; assay: Antiviral cellular assay, HIV-2; format: cell-based; settings: Human immunodeficiency virus 2; read-out: pEC50 towards HIV-2 (converted)
Description: as §1, with “The toxicity of the compound was measured on the mock-infected cells and was expressed as CC50, which represents the concentration of compound required to inhibit the growth of the cells by 50%. The selectivity index (SI) (ratio CC50/EC50) is an indication of the selectivity of the anti-HIV activity of the inhibitor.” left out
(§3) Row WT: pEC50 against wild type HlV-LAI strain. The toxicity (Tox) is expressed as the pCC50 value as determined with mock transfected cells. ND means not determined.

[14] = test system: SIV (simian immunodeficiency virus); assay: Antiviral cellular assay, SIV; format: cell-based; settings: read-out: pEC50 towards SIV (converted)
[15] = in vitro; format: cell-based; settings: human
Description: as §1, with “The toxicity of the compound was measured on the mock-infected cells and was expressed as CC50, which represents the concentration of compound required to inhibit the growth of the cells by 50%. The selectivity index (SI) (ratio CC50/EC50) is an indication of the selectivity of the anti-HIV activity of the inhibitor.” left out
as §3

[16] = molecular target: T1, HIV reverse transcriptase (Human immunodeficiency virus type 1 group M subtype B, UniProt P04585); assay: In vitro inhibition of HIV reverse transcriptase (kit TRK 1022); format: biochemical; settings: enzyme assay, no conversion to active metabolite needed
T1 construct: 5 μl HIV RT enzyme solution at a final enzyme activity of 15 mU per 50 μl reaction; purchased Amersham Life Sciences TRK 1022
Description: In vitro Inhibition of HIV Reverse Transcriptase The assay was run using kit TRK 1022 (Amersham Life Sciences) according to the manufacturer's instructions with slight modifications. Compounds were diluted in steps of ¼ in 100% DMSO and subsequently transferred to Medium A (1/50 dilution; medium A: RPMI 1640+10% FetalClone II+Gentamycin 20 mg/L). 25 μl of compound (in 2% DMSO in Medium A) or 25 μl of 2% DMSO in medium A was added to wells. To each well was added 25.5 μl master mix (master mix: 5 μl primer/template beads, 10 μl assay buffer, 0.5 μl tracer (3H-TTP), 5 μl HIV RT enzyme solution at a final enzyme activity of 15 mU per 50 μl reaction, 5 μl medium A). The plates were sealed, marked as radioactive and incubated during 4 hours at 37° C. Subsequently, 100 μl stop solution was added to each well (except R1). The radioactivity was counted in a TopCount.

[17] = test system: Mycobacterium b.; assay: Specificity versus non-viral pathogens: Mycobacterium b.; format: cell-based
[18] = test system: Plasmodium f.; assay: Specificity versus non-viral pathogens: Plasmodium f.; format: cell-based
[19] = test system: Trypanosoma b.; assay: Specificity versus non-viral pathogens: Trypanosoma b.; format: cell-based
[20] = test system: Trypanosoma c.; assay: Specificity versus non-viral pathogens: Trypanosoma c.; format: cell-based
[21] = EC50 mutant / EC50 wild type, rounded to nearest integer

Cn1c2ccccc2c2c1cc(C#N)c(=O)n2-c1ccc([N+](=O)[O-])cc1 [Compound 2, 5-methyl-1-(4-nitro-phenyl)-2-oxo-2,5-dihydro-1H-pyrido[3,2-b]indole-3-carbonitrile]
EC50 ([1]; Human immunodeficiency virus 1, MT4, read-out: EC50 value for wild-type HIV): < 100 nM | EC50 ([1]; Human immunodeficiency virus 1, WT, MT4 cells, read-out: pEC50 against wild type HIV-LAI strain (converted)): 25.1 nM | fold resistance, mutant A [2, 21]: (4) | EC50 ([2]; Human immunodeficiency virus 1, read-out: pEC50 towards mutant A (converted)): 100 nM | fold resistance, mutant B [3, 21]: (1) | EC50 ([3]; Human immunodeficiency virus 1, read-out: pEC50 towards mutant B (converted)): 31.6 nM | fold resistance, mutant C [4, 21]: (3) | EC50 ([4]; Human immunodeficiency virus 1, read-out: pEC50 towards mutant C (converted)): 79.4 nM | fold resistance, mutant D [5, 21]: (2) | EC50 ([5]; Human immunodeficiency virus 1, read-out: pEC50 towards mutant D (converted)): 50.1 nM | fold resistance, mutant E [6, 21]: (3) | EC50 ([6]; Human immunodeficiency virus 1, read-out: pEC50 towards mutant E (converted)): 63.1 nM | fold resistance, mutant F [7, 21]: (2) | EC50 ([7]; Human immunodeficiency virus 1, read-out: pEC50 towards mutant F (converted)): 39.8 nM | fold resistance, mutant G [8, 21]: (3) | EC50 ([8]; Human immunodeficiency virus 1, read-out: pEC50 towards mutant G (converted)): 63.1 nM | fold resistance, mutant H [9, 21]: (5) | EC50 ([9]; Human immunodeficiency virus 1, read-out: pEC50 towards mutant H (converted)): 126 nM | fold resistance, mutant I [10, 21]: (3) | EC50 ([10]; Human immunodeficiency virus 1, read-out: pEC50 towards mutant I (converted)): 63.1 nM | fold resistance, mutant J [11, 21]: (5) | EC50 ([11]; Human immunodeficiency virus 1, read-out: pEC50 towards mutant J (converted)): 126 nM | fold resistance, mutant K [12, 21]: (4) | EC50 ([12]; Human immunodeficiency virus 1, read-out: pEC50 towards mutant K (converted)): 100 nM | EC50 [13]: 251 nM | EC50 [14]: 316 nM | CC50 at 5 days [15]: > 32400 nM | inhibition of HIV reverse transcriptase in vitro [16]: inhibits HIV reverse transcriptase in vitro | EC50 [17]: > 32000 nM | EC50 [18]: > 32000 nM | EC50 [19]: > 32000 nM | EC50 [20]: > 32000 nM
